Values quoted from earlier work, collected in patent US20240335409A1, “SYSTEMS AND METHODS FOR DELIVERY OF PHENYLALANINE AND LACTATE” (Transdermal Biotechnology, Inc., priority 2022, published 2024).

What was measured:
[1] = test system: mice

## C[C@H](O)C(=O)N[C@@H](Cc1ccccc1)C(=O)O [Lac-Phe, N-lactoyl-phenylalanine]
[1]
  effect on food intake and obesity: effectively reduce food intake and obesity
other
  water solubility: > 2000 µM
